Experimental data published in patent publication US20040005537A1, “Method of identifying toxic agents using differential gene expression” (priority 2000, published 2004).

Tested on: rat heart tissue
Assay: GENECALLING differential gene expression analysis after dosing of serotonin modulating agents
Assay type: in vivo, Sprague Dawley rats
Procedure, shortened: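 GENECALLING profiling of cDNA from total RNA, keeping gene fragments modulated beyond ±1.5-fold. Tissue collected 24 h after final dosing of serotonin modulating agents; control rats received sterile water or canola oil.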

CC(C)CC(N(C)C)C1(c2ccc(Cl)cc2)CCC1 (stereo not drawn) [sibutramine]
Effects on Transcription Level: Novel gene fragment, 524 bp, 86% SI to mouse F-box protein FBX6b [AF176526] (CARDIOTOX 1): +1.3 fold
Effects on Transcription Level: Novel gene fragment, 306 bp, 91% SI to mouse low density lipoprotein receptor related protein 4 [AB013874] (CARDIOTOX 2): −1.3 fold
Effects on Transcription Level: Novel gene fragment, 540 bp, 97% SI to mouse skeletal muscle alpha-actin [X03766] (CARDIOTOX 3): −1.1 fold
Effects on Transcription Level: Novel gene fragment, 80 bp (CARDIOTOX 4): −1.3 fold
Effects on Transcription Level: Novel gene fragment, 957 bp, 99% SI to kidney injury associated moleculer HW036 [V80591] (CARDIOTOX 5): −1.0 fold
Effects on Transcription Level: Novel gene fragment, 282 bp, 85% SI to human KIAA1515 protein [AB040948] (CARDIOTOX 6): −1.4 fold
Effects on Transcription Level: Novel gene fragment, 405 bp, 88% SI to human 2-oxoglutarate dehydrogenase [D10523] (CARDIOTOX 7): −1.4 fold
Effects on Transcription Level: UCP2 (CARDIOTOX 8, GenBank AB010743): −1.3 fold
Effects on Transcription Level: Plasma membrane Ca2 + ATPase-isoform 1 (CARDIOTOX 9, GenBank J03753): +1.2 fold
Effects on Transcription Level: Novel gene fragment, 242 bp, 97% SI to mouse HSP86 heat-shock protein [X16857] (CARDIOTOX 10): +1.4 fold
Effects on Transcription Level: Novel gene fragment, 280 bp, 65% SI to human TRF1-interacting, ankyrin-related ADP-ribose polymerase [AF082556] (CARDIOTOX 11): +1.2 fold
Effects on Transcription Level: Novel gene fragment, 348 bp, 88% SI to mouse Sec61 protein complex gamma subunit [U11027] (CARDIOTOX 12): +1.4 fold
Effects on Transcription Level: Novel gene fragment 553 bp, 93% SI to mouse Sid329 [AB024984] (CARDIOTOX 13): +1.1 fold
Effects on Transcription Level: Kruppel-like transcription factor (CARDIOTOX 14, GenBank AB020759): +1.1 fold
Effects on Transcription Level: Ribosomal protein L3 (CARDIOTOX 15, GenBank X62166): +1.3 fold
Effects on Transcription Level: Glucose-regulated protein (GRP) 75 (CARDIOTOX 16, GenBank S78556): +1.1 fold
Effects on Transcription Level: Immunoglobulin heavy chain binding protein (BiP) (CARDIOTOX 17, GenBank M14050): −1.1 fold
Effects on Transcription Level: Membrane-spannining proteoglycan NG2 (CARDIOTOX 18, GenBank X56541): −1.1 fold
Effects on Transcription Level: Novel gene fragment, 1294 bp, 96% SI to mouse Sui 1 (elF) homolog [AF129888] (CARDIOTOX 19): +1.1 fold
Effects on Transcription Level: Novel gene fragment, 723 bp, 85% SI to human translation initiation factor elF3 p40 subunit [U54559] (CARDIOTOX 20): −1.1 fold
Effects on Transcription Level: Novel gene fragment, 1324 bp, 76% SI to human flavoprotein subunit of complex II [D30648] (CARDIOTOX 21): +1.4 fold
Effects on Transcription Level: Novel gene fragment, 852 bp, 81% SI to human vacuolar proton-ATPase subunit M9.2 [Y15286] (CARDIOTOX 22): +1.2 fold
Effects on Transcription Level: Novel gene fragment, 178 bp, 91% SI to mouse myosin light chain-2 isoform MLC-2a [S70785] (CARDIOTOX 23): +1.4 fold
Effects on Transcription Level: Novel gene fragment, 167 bp, 90% SI to mouse Rab20 [X80332] (CARDIOTOX 24): +1.0 fold
Effects on Transcription Level: Novel gene fragment, 1070 bp, 80% SI to human muscle-specific protein [AF249873] (CARDIOTOX 25): +1.2 fold
Effects on Transcription Level: Novel gene fragment, 1143 bp, 82% SI to human sarcoma amplified sequence (SAS) [U01160] (CARDIOTOX 26): +1.3 fold
Effects on Transcription Level: Novel gene fragment, 74 bp,75% SI to human secreted protein [X30160] (from patent database)/[X97578] (from patent database)/potential cytokine) (CARDIOTOX 27): −1.3 fold
Effects on Transcription Level: Novel gene fragment, 408 bp, 90% SI to human CGI-07 protein [AF132941] (CARDIOTOX 28): −1.0 fold
Effects on Transcription Level: Novel gene fragment, 618 bp, 95% SI to rat progression related cDNA, ZNPE-120 3′ end partial sequence [patent database X90805] (CARDIOTOX 29): +1.0 fold
Effects on Transcription Level: Novel gene fragment, 717 bp (CARDIOTOX 30): +1.2 fold
Effects on Transcription Level: Novel gene fragment, 546 bp (CARDIOTOX 31): +1.3 fold
Effects on Transcription Level: Novel gene fragment, 920 bp, 91% SI to human HSPC061 [AF161546] (CARDIOTOX 32): +1.2 fold
Effects on Transcription Level: Novel gene fragment, 203 bp, 92% SI to rabbit sarcoplasmic reticulum glycoprotein [J04480] (CARDIOTOX 33): −1.2 fold
Effects on Transcription Level: Novel gene fragment, 178 bp, 68% SI to mouse IgG receptor (beta-Fc-gamma-RII)[M63159] (CARDIOTOX 34): +1.4 fold
Effects on Transcription Level: Ribosomal protein L6 (CARDIOTOX 35, GenBank X87107): +1.4 fold
Effects on Transcription Level: CAP2 protein (adenylyl cyclase-associated protein 2) (CARDIOTOX 36, GenBank U31935): +1.4 fold
Effects on Transcription Level: Alpha-platelet-derived growth factor receptor (CARDIOTOX 37, GenBank M63837): −1.1 fold
Effects on Transcription Level: Rab GD1 alpha protein (CARDIOTOX 38, GenBank X74402): −1.1 fold
Effects on Transcription Level: PKC-zeta-interacting protein (CARDIOTOX 39, GenBank Y08355): −1.2 fold
Effects on Transcription Level: ERK or MAP kinase (CARDIOTOX 40, GenBank X65198): +1.4 fold
Effects on Transcription Level: Peroxisomal multifunctional enzyme type II (CARDIOTOX 41, GenBank U37486): +1.3 fold
Effects on Transcription Level: HBP23 (heme-binding protein 23 kDa) (CARDIOTOX 42, GenBank D30035): +1.3 fold
Effects on Transcription Level: Caveolae-associated protein (CARDIOTOX 43, GenBank U90725): −1.0 fold
Effects on Transcription Level: Prenylated rab acceptor 1 (PRA1) (CARDIOTOX 44, GenBank AF025506): +1.4 fold
Effects on Transcription Level: Novel gene fragment, 337 bp, 88% SI to rabbit cardiac ryanodine receptor (RyR-2)[U50465] (CARDIOTOX 45): −1.3 fold
Effects on Transcription Level: Novel gene fragment, 81 bp, 85% SI to human titin [X90568] (CARDIOTOX 46): −1.3 fold
Effects on Transcription Level: Novel gene fragment, 428 bp, 86% SI to human titin [X90568] (CARDIOTOX 47): −1.1 fold
Effects on Transcription Level: Novel gene fragment, 374 bp, 88% SI to human titin [X90568] (CARDIOTOX 48): −1.2 fold
Effects on Transcription Level: Novel gene fragment, 428 bp, 85% SI to human titin [90568] (CARDIOTOX 49): −1.3 fold
Effects on Transcription Level: Novel gene fragment, 1216 bp, 93% SI to mouse mircotubule-associated protein (MAP) 1B protein [AF115776] (CARDIOTOX 50): −1.1 fold
Effects on Transcription Level: Novel gene fragment, 1115 bp, 83% SI to human KIAA0549 protein [AB011121] (CARDIOTOX 51): −1.4 fold
Effects on Transcription Level: Novel gene fragment, 153 bp (CARDIOTOX 52): −1.2 fold
Effects on Transcription Level: Novel gene fragment, 89 bp, 93% SI to human putative glialblastoma cell differentiation-related protein (GBDR1) [AF068195] (CARDIOTOX 53): +1.4 fold
Effects on Transcription Level: Rho-associated kinase beta (CARDIOTOX 54, GenBank U61266): −1.1 fold
Effects on Transcription Level: Adenylate kinase 3 (CARDIOTOX 55, GenBank D13062): +1.4 fold
Effects on Transcription Level: Amyloid beta-peptide binding protein (CARDIOTOX 56, GenBank AF049878): +1.3 fold
Effects on Transcription Level: Mitochondrial adenine nuleotide translocator (CARDIOTOX 57, GenBank D12771): +1.4 fold
Effects on Transcription Level: Novel gene fragment, 710 bp, 94% SI to mouse chromatin structural protein homolog Supt5 hp (Supt5 h)[U88539] (CARDIOTOX 58): +7.5 fold
Effects on Transcription Level: Novel gene fragment, 186 bp, 66% SI to human N-acetylglucosaminyltransferase 1 (GlcNAc-TI)[M55621] (CARDIOTOX 60): −1.9 fold
Effects on Transcription Level: Novel gene fragment, 238 bp, 95% SI to mouse MAP kinase-activated protein kinase 2 [X76850] (CARDIOTOX 61): −2.8 fold
Effects on Transcription Level: Novel gene fragment, 173 bp, 70% SI to G protein-coupled receptor kinase GRK4 [X97568] (CARDIOTOX 62): −5.3 fold
Effects on Transcription Level: Novel gene fragment, 133 bp, 77% SI to human apoptosis related protein hSARP3 [patent database: V19114] (CARDIOTOX 63): −2.0 fold
Effects on Transcription Level: Novel gene fragment, 477 bp, 98% SI to peroxisomal phytanoyl-CoA hydroxylase (PHYH) [AF121345] (CARDIOTOX 64): +7.0 fold
Effects on Transcription Level: Novel gene fragment, 413 bp, 95% SI to mouse dihydrolipoamide dehydrogenase (Dld) [U73445] (CARDIOTOX 65): +1.6 fold
Effects on Transcription Level: Novel gene fragment, 726 bp, 76% SI to human succinate dehydrogenase flavoprotein subunit (SDH) [L21936] (CARDIOTOX 66): −3.0 fold
Effects on Transcription Level: Novel gene fragment, 440 bp, 92% SI to mouse cytochrome c oxidase Vllc [X52940] (CARDIOTOX 67): +11.5 fold
Effects on Transcription Level: Novel gene fragment, 276 bp, 80% SI to human titin [X90568] (CARDIOTOX 68): −6.6 fold
Effects on Transcription Level: Novel gene fragment, 149 bp, 70% SI to human titin [X90568] (CARDIOTOX 69): −2.4 fold
Effects on Transcription Level: Novel gene fragment, 467 bp, 94% SI to mouse gelsolin [J04953] (CARDIOTOX 70): −1.7 fold
